In test [1] the target is anti-cotinine antibody (SEQ ID NO: 11/12, rabbit variable region with human IgG1 Fc DE mutation). The experiment in a line: SPR binding of anti-cotinine antibody to ARM compounds, Biacore T200, 37° C. (Example 202). Particulars: SPR Biacore T200, 37° C., pH 7.4, antibody SEQ ID NO: 11/12 captured on protein A; Kd in molar. The procedure, abridged:
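Run at 37 °C in 10 mM HEPES pH 7.4, 150 mM NaCl, 0.005% P20, 1% DMSO, with compounds titrated from 200 nM (five 3-fold steps) over protein A–captured antibody. A 1:1 kinetic model on double-referenced data gave rate constants, Kd as koff/kon and residence time 1/koff; results as pKd, run-averaged.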
In general terms: SPR reads the build-up and loss of mass on a sensor chip optically.

The subject of test [2] is CCR2 expressing cells (CD11b+Ly6c+Hi) in peripheral blood. The experiment in a line: In vivo depletion assay, flow cytometry of peripheral blood (Example 201). More on the design: species or system human CCR2 knock-in mice (C57 background). As to conditions: hCCR2 knock-in mice, IV 0.1 mpk compound + 10 mpk anti-cotinine antibody (SEQ ID NO: 13/14), peripheral blood at 48 hr. The procedure, abridged: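 Flow cytometry of blood collected at study termination quantified percent depletion of CD11b+Ly6c+Hi cells and CCR2 expression, using surface markers CD45, CD3, CD11b, Ly6C, human CCR2 after Fc block, with 7AAD viability stain. Compound given in saline:DMSO:PBS formulation, optionally combined with anti-cotinine antibody, incubated 30 min before administration.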

The subject of test [3] is endogenous target monocytes in human PBMC. The test can be described thus: PBMC ex vivo monocyte depletion flow cytometry assay (Example 200). It is filed as cell-based. Particulars: with anti-cotinine antibody (SEQ ID NO: 11/12), 18-24 hours, EC50 in molar, read-out: Ex Vivo Depletion Assay pEC50 (converted). The procedure, abridged: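 Monocyte depletion is reported as pEC50, averaged or given individually across runs, and read by flow cytometry staining CD45, CD14 and CD4 with a viability dye. Compounds, diluted four-fold over 11 points from 1 mM DMSO stocks, were combined with 30 μg/mL Fc-enhanced anti-cotinine antibody and human PBMC, then incubated 18-24 h at 37° C.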
(Flow cytometry measures light scatter and fluorescence of single cells or particles in a stream.)

Test [4] concerns the target human alpha1 nicotinic acetylcholine (nACh) receptor (Homo sapiens, UniProt P02708). The experiment in a line: Nicotinic acetylcholine receptor antagonism assay, IONFlux automated patch clamp (Example 203). It is filed as cell-based. Particulars: for IC50: antagonism of ACh-stimulated human alpha1 nAChR current, patch clamp; for Emax at 10 µM: maximum percentage antagonism at maximum concentration tested 10 μM, read-out: Maximum Response. In short, it runs like this:
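Cells expressing human α1 nAChR were incubated with a compound dose response (top 10 μM or 100 μM), then stimulated with ACh (10 mM), and peak current was read by automated patch clamp. % inhibition was taken against ACh-alone control, corrected for vehicle and run-down, and fit non-linearly for IC50; runs were averaged.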

Chain of human alpha1 nicotinic acetylcholine (nACh) receptor (P02708 21-457): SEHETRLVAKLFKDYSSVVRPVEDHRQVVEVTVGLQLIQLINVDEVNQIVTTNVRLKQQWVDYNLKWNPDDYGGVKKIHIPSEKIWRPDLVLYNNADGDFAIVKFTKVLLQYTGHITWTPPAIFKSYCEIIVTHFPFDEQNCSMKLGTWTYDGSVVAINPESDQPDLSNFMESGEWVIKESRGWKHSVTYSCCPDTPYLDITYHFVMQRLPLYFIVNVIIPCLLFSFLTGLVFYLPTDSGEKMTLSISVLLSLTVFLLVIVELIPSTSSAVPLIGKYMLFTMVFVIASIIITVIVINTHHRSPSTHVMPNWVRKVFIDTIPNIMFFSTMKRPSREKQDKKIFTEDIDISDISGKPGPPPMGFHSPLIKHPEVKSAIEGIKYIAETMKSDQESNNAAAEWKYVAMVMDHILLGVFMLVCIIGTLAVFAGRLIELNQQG
Chain of human alpha1 nicotinic acetylcholine (nACh) receptor (P11230 24-501 partner): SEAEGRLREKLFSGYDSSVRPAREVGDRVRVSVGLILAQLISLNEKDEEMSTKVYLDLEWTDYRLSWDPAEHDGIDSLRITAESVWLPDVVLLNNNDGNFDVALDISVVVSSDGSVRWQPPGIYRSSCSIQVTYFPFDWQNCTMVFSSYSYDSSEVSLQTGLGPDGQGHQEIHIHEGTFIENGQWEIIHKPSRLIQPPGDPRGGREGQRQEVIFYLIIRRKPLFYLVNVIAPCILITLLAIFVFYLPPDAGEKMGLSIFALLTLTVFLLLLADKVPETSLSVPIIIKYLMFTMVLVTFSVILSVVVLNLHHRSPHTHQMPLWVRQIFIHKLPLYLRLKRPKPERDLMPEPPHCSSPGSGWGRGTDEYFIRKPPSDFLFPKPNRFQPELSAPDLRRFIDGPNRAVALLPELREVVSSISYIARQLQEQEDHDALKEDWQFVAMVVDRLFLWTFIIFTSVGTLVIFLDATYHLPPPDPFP
Chain of human alpha1 nicotinic acetylcholine (nACh) receptor (Q07001 22-517 partner): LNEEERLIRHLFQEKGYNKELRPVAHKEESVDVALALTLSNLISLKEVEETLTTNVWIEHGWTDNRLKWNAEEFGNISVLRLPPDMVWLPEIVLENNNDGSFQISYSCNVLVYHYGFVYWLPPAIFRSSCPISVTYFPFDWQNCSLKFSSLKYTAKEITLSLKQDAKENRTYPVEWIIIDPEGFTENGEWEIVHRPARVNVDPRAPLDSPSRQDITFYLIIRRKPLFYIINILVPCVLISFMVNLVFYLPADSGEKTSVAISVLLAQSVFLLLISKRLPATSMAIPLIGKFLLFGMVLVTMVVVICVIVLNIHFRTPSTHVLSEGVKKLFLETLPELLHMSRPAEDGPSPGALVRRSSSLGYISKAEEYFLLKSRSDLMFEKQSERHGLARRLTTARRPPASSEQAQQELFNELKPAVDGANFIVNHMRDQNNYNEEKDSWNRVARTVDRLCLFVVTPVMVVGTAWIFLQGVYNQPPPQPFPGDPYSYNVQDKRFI

With `CC(C)N(C)[C@@H]1CC[C@H](N2CC[C@H](Nc3ncnc4ccc(C(F)(F)F)cc34)C2=O)[C@H](NC(=O)[C@H]2CC[C@H](NC(=O)CCCO[C@H]3CC[C@H](OCCNC(=O)[C@H]4CC(=O)N(C5CC5)[C@@H]4c4cccnc4)CC3)CC2)C1` [Example 13, (2S,3S)-1-cyclopropyl-N-(2-(((1R,4S)-4-(4-(((1R,4R)-4-(((1R,2S,5R)-5-(isopropyl(methyl)amino)-2-((S)-2-oxo-3-((6-(trifluoromethyl)quinazolin-4-yl)amino)pyrrolidin-1-yl)cyclohexyl)carbamoyl)cyclohexyl)amino)-4-oxobutoxy)cyclohexyl)oxy)ethyl)-5-oxo-2-(pyridin-3-yl)pyrrolidine-3-carboxamide], the “pKd of Antibody for ARM Compound of Formula (I)” value (“pKd of Antibody” below) in test [1] was found to be 10.511. For the same compound, the “% Depletion of CCR2 expressing cells” value in test [2] came out at 96.07%.
As a reminder, the IC50 is the concentration needed to halve the response being measured. Read a high IC50 as weaker potency in that assay. For the compound `CC(C)N(C)[C@@H]1CC[C@H](N2CC[C@H](Nc3ncnc4ccc(C(F)(F)F)cc34)C2=O)[C@H](NC(=O)[C@H]2CC[C@@H](C3CCN(C(=O)CCOCCOCCNC(=O)[C@H]4CC(=O)N(C)[C@@H]4c4cccnc4)CC3)CC2)C1` [Example 72, (2S,3S)-N-(2-(2-(3-(4-((1S,4s)-4-(((1R,2S,5R)-5-(isopropyl(methyl)amino)-2-((S)-2-oxo-3-((6-(trifluoromethyl)quinazolin-4-yl)amino)pyrrolidin-1-yl)cyclohexyl)carbamoyl)cyclohexyl)piperidin-1-yl)-3-oxopropoxy)ethoxy)ethyl)-1-methyl-5-oxo-2-(pyridin-3-yl)pyrrolidine-3-carboxamide], the EC50 in test [3] is 7.94 nM. For the same compound, the “pKd of Antibody” value in test [1] came out at 9.8865. Further, in test [4], the IC50 was at least 10000 nM and the Emax at 10 µM is 32.7%.
Regarding `CC(C)N(C)[C@@H]1CC[C@H](N2CC[C@H](Nc3ncnc4ccc(C(F)(F)F)cc34)C2=O)[C@H](NC(=O)[C@H]2CC[C@H](C3CCN(C(=O)CCOCCOCCNC(=O)[C@H]4CC(=O)N(C)[C@@H]4c4cccnc4)CC3)CC2)C1` [Example 73, (2S,3S)-N-(2-(2-(3-(4-((1R,4r)-4-(((1R,2S,5R)-5-(Isopropyl(methyl)amino)-2-((S)-2-oxo-3-((6-(trifluoromethyl)quinazolin-4-yl)amino)pyrrolidin-1-yl)cyclohexyl)carbamoyl)cyclohexyl)piperidin-1-yl)-3-oxopropoxy)ethoxy)ethyl)-1-methyl-5-oxo-2-(pyridin-3-yl)pyrrolidine-3-carboxamide], in test [3], the EC50 was 100000 nM. In test [1], the “pKd of Antibody” value is 9.8185. Besides, in test [4], the concentration for half-maximal inhibition (IC50) is at least 10000 nM and the Emax at 10 µM was 4.1%.
With `CC(C)N(C)[C@@H]1CC[C@H](N2CC[C@H](Nc3ncnc4ccc(C(F)(F)F)cc34)C2=O)[C@H](NC(=O)COCCOCCNC(=O)CCOCCOCCNC(=O)[C@H]2CC(=O)N(C)[C@@H]2c2cccnc2)C1` [Example 77, (2S,3S)-N-(1-(((1R,2S,5R)-5-(Isopropyl(methyl)amino)-2-((S)-2-oxo-3-((6-(trifluoromethyl)quinazolin-4-yl)amino)pyrrolidin-1-yl)cyclohexyl)amino)-1,10-dioxo-3,6,13,16-tetraoxa-9-azaoctadecan-18-yl)-1-methyl-5-oxo-2-(pyridin-3-yl)pyrrolidine-3-carboxamide], in test [3], the EC50 was 6.31 nM. The “pKd of Antibody” value in test [1] worked out at 9.152. In test [4], the IC50 was at least 10000 nM and the Emax at 10 µM is 19.6%.
In the case of `CC(C)N(C)[C@@H]1CC[C@H](N2CC[C@H](Nc3ncnc4ccc(C(F)(F)F)cc34)C2=O)[C@H](NC(=O)COCCNC(=O)COCCNC(=O)CCOCCNC(=O)[C@H]2CC(=O)N(C)[C@@H]2c2cccnc2)C1` [Example 151, (2S,3S)-N-(1-(((1R,2S,5R)-5-(Isopropyl(methyl)amino)-2-((S)-2-oxo-3-((6-(trifluoromethyl)quinazolin-4-yl)amino)pyrrolidin-1-yl)cyclohexyl)amino)-1,7,13-trioxo-3,9,16-trioxa-6,12-diazaoctadecan-18-yl)-1-methyl-5-oxo-2-(pyridin-3-yl)pyrrolidine-3-carboxamide], the EC50 in test [3] was 2 nM. Further, the “pKd of Antibody” value in test [1] is 9.0755.
For `CC(C)N(C)[C@@H]1CC[C@H](N2CC[C@H](Nc3ncnc4ccc(C(F)(F)F)cc34)C2=O)[C@H](NC(=O)CCOCCOCCOCCNc2c(NCCNC(=O)[C@H]3CC(=O)N(C)[C@@H]3c3cccnc3)c(=O)c2=O)C1` [Example 168, (2S,3S)-N-(2-((2-((2-(2-(2-(3-(((1R,2S,5R)-5-(Isopropyl(methyl)amino)-2-((S)-2-oxo-3-((6-(trifluoromethyl)quinazolin-4-yl)amino)pyrrolidin-1-yl)cyclohexyl)amino)-3-oxopropoxy)ethoxy)ethoxy)ethyl)amino)-3,4-dioxocyclobut-1-en-1-yl)amino)ethyl)-1-methyl-5-oxo-2-(pyridin-3-yl)pyrrolidine-3-carboxamide] the same measures were 1 nM and 9.06.
In the same order, the values of `CC(C)N(C)[C@@H]1CC[C@H](N2CC[C@H](Nc3ncnc4ccc(C(F)(F)F)cc34)C2=O)[C@H](NC(=O)[C@H]2CC[C@@H](NC(=O)CCOCCNC(=O)COCCCNC(=O)[C@H]3CC(=O)N(C)[C@@H]3c3cccnc3)CC2)C1` [Example 175, (2S,3S)-N-(3-(2-((2-(3-(((1S,4s)-4-(((1R,2S,5R)-5-(Isopropyl(methyl)amino)-2-((S)-2-oxo-3-((6-(trifluoromethyl)quinazolin-4-yl)amino)pyrrolidin-1-yl)cyclohexyl)carbamoyl)cyclohexyl)amino)-3-oxopropoxy)ethyl)amino)-2-oxoethoxy)propyl)-1-methyl-5-oxo-2-(pyridin-3-yl)pyrrolidine-3-carboxamide] are 0.631 nM and 9.244.
In the same order, the values of `CC(C)N(C)[C@@H]1CC[C@H](N2CC[C@H](Nc3ncnc4ccc(C(F)(F)F)cc34)C2=O)[C@H](NC(=O)CCCC(=O)N[C@H]2CC[C@H](CNC(=O)CCOCCNC(=O)[C@H]3CC(=O)N(C)[C@@H]3c3cccnc3)CC2)C1` [Example 180, N^1-((1R,2S,5R)-5-(isopropyl(methyl)amino)-2-((S)-2-oxo-3-((6-(trifluoromethyl)quinazolin-4-yl)amino)pyrrolidin-1-yl)cyclohexyl)-N^5-((1S,4R)-4-((3-(2-((2S,3S)-1-methyl-5-oxo-2-(pyridin-3-yl)pyrrolidine-3-carboxamido)ethoxy)propanamido)methyl)cyclohexyl)glutaramide] are 1.26 nM and 9.249.
With `CC(C)N(C)[C@@H]1CC[C@H](N2CC[C@H](Nc3ncnc4ccc(C(F)(F)F)cc34)C2=O)[C@H](NC(=O)COCCNC(=O)CCNC(=O)CCOCCOCCNC(=O)[C@H]2CC(=O)N(C)[C@@H]2c2cccnc2)C1` [Example 181, (2S,3S)-N-(1-(((1R,2S,5R)-5-(Isopropyl(methyl)amino)-2-((S)-2-oxo-3-((6-(trifluoromethyl)quinazolin-4-yl)amino)pyrrolidin-1-yl)cyclohexyl)amino)-1,7,11-trioxo-3,14,17-trioxa-6,10-diazanonadecan-19-yl)-1-methyl-5-oxo-2-(pyridin-3-yl)pyrrolidine-3-carboxamide], in test [3], the EC50 was 0.398 nM. Moreover, in test [1], the “pKd of Antibody” value is listed as 9.1645.
In the same order, the values of `CC(C)N(C)[C@@H]1CC[C@H](N2CC[C@H](Nc3ncnc4ccc(C(F)(F)F)cc34)C2=O)[C@H](NC(=O)[C@H]2CC[C@@H](NC(=O)CCOCCNC(=O)CCCCNC(=O)[C@H]3CC(=O)N(C)[C@@H]3c3cccnc3)CC2)C1` [Example 198, (2S,3S)-N-(5-((2-(3-(((1S,4s)-4-(((1R,2S,5R)-5-(Isopropyl(methyl)amino)-2-((S)-2-oxo-3-((6-(trifluoromethyl)quinazolin-4-yl)amino)pyrrolidin-1-yl)cyclohexyl)carbamoyl)cyclohexyl)amino)-3-oxopropoxy)ethyl)amino)-5-oxopentyl)-1-methyl-5-oxo-2-(pyridin-3-yl)pyrrolidine-3-carboxamide] are 0.501 nM and 9.3835.

The values are drawn from patent publication US12521393B2, “Cytotoxicity targeting chimeras for CCR2-expressing cells” (GLAXOSMITHKLINE INTELLECTUAL PROPERTY DEVELOPMENT LIMITED, priority 2021, dated 2026).
